“Also recorded” adds a separate entry of the source. Like-named read-outs stand apart in the source and are kept apart here.
Key:
[1] = system: HER2-positive tumour cell line, SK-BR-3; experiment: In vitro potency / cell viability assay (CellTiter-Glo) in SK-BR-3 cell line; assay type: cell-based
Source text: (§1) Loss of tumour cell viability following treatment with cytotoxic drugs or ADCs in vitro can be measured by growing cell lines in the presence of increasing concentrations of drugs or ADCs and quantifying the loss of proliferation or metabolic activity using CellTiter-Glo® Luminescence reagent (Promega). The protocol describes cell seeding, drug treatment and determination of the cell viability in reference to untreated cells based on ATP synthesis, which is directly related to the number of cells present in the well.
HER2-positive tumour cell line, SK-BR-3 (ATCC-HTB-30), was grown in McCoy's 5A medium complemented with 10% foetal bovine serum, 100 u/mL Penicillin and 100 μg/mL Streptomycin. SK-BR-3 cells were detached, seeded at 5,000 cells per well (100 μL/well) into poly-D-lysine coated clear bottom white-walled 96-well plates and incubated for 24 h at 37° C. and 5% CO2.
Serial dilutions of compounds were prepared in triplicate using the relevant cell culture medium as diluent. The CD30-positive Karpas-299 cells were treated with 50 μL compounds at 2× assay concentration. Medium from the SK-BR-3 assay plates was removed and replaced by 100 μL serially diluted compounds at 1× assay concentration. The assay concentrations are specified in Table 1. The cells were then incubated with the compounds (total volume 100 μL/well), at 37° C. and 5% CO2 for a further 96 h.
(§2) At the end of the incubation, cell viability was measured using the CellTiter-Glo® Luminescence reagent, as described by the manufacturer's instructions. The data was subsequently analysed using a four parameter non-linear regression model.
(§3) Viability was expressed as % of untreated cells and calculated using the following formula: […]
The % viability (Y-axis) was plotted against the logarithm of drug concentration in nM (X-axis) to extrapolate the IC50 values for all compounds.

[2] = Stability of atropisomers on heating in DMSO (HPLC); assay type: physicochemical; settings: 50° C., 1 h
Experimental: The stability of the atropisomers was investigated by heating solutions of compounds 80 and 81 in DMSO at 50° C. for 1 h.

[3] = system: CD30-positive human T cell lymphoma cell line Karpas-299; experiment: In vitro potency / cell viability assay (CellTiter-Glo) in Karpas-299 cell line; assay type: cell-based; settings: 96 h incubation
Source text: as §1
The CD30-positive human T cell lymphoma cell line Karpas-299 was obtained from Dr Abraham Karpas at the University of Cambridge. The cells were grown in RPMI medium supplemented with 10% foetal bovine serum, 100 U/mL Penicillin and 100 μg/mL Streptomycin. […]
as §2, §3
Loss of tumour cell viability following treatment with ADCs incorporating maytansinoids of the invention was tested by growing cell lines in the presence of increasing concentrations of ADCs and quantifying the loss of proliferation or metabolic activity as described in Example 2. […]

[4] = Stability in mouse serum (LC-Orbitrap-MS); assay type: in vitro ADME; settings: 37° C., 4 and 7 days, 90% (v/v) mouse serum, 0.05 mg/mL
Experimental: Solutions of compounds 26 and 78 (comparator) in a 50/50 v/v mixture of DMF:buffer solution (20 mM sodium phosphate, 150 mM sodium chloride, 20 mM EDTA, pH 7.5) (0.5 mg/mL) were diluted to 0.05 mg/mL in mouse serum (90% (v/v) serum content). An aliquot of each sample corresponding to the ‘0’ time point was immediately frozen at −80° C., while the remaining sample was incubated at 37° C. for 7 d. Additional aliquots were taken after 4 and 7 d and frozen at −80° C. Prior to analysis, the samples were removed from the freezer and maytansinoid-related species were extracted from the serum by protein precipitation. Protein precipitation was performed by adding acetonitrile (75% v/v) to each time-point aliquot, and after gentle mixing, allowing the mixtures to stand at 4° C. for 2 h. The precipitated protein was then separated by centrifugation (1400×g, 30 min, 4° C.) and the supernatant containing the extracted maytansinoid-related species were analysed by LC-Orbitrap-MS.
The samples were further diluted with water resulting in a 15% v/v acetonitrile solution. An aliquot (2.5 μL) of each solution was then injected onto a nano-liquid chromatography MS system, consisting of a Dionex ULTIMATE 3000 UPLC fitted with a PepMap C18 column (0.075×150 mm), coupled online to an Orbitrap-MS instrument operated in ES positive mode at 75K resolution using lock mass. […]

[5] = free compounds, as described in Example 2, read-out: Average IC50 (nM) SK-BR-3 Cell line
[6] = Homo sapiens, SK-BR-3, 96 h, 96 h incubation, CellTiter-Glo, read-out: IC50 (nM) SKBR3 Cell line
[7] = Homo sapiens, SK-BR-3, free compounds, as described in Example 2, read-out: Average IC50 (nM) SK-BR-3 Cell line

Compound | IC50 [1, 7] [nM] | further results
COc1cc2cc(c1-c1ccc(N)cc1Cl)N(C)C(=O)C[C@H](OC(=O)C(C)C)[C@]1(C)O[C@H]1[C@H](C)[C@@H]1C[C@@](O)(NC(=O)O1)[C@H](OC)/C=C/C=C(\C)C2 (single isomer, unassigned) [Compound 80] | – | IC50 [1, 5]: 3.6 nM; stability of atropisomers (HPLC chromatograms) [2]: no changes were observed
COc1cc2cc(c1-c1ccc(N)cc1Cl)N(C)C(=O)C[C@H](OC(=O)C(C)C)[C@]1(C)O[C@H]1[C@H](C)[C@@H]1C[C@@](O)(NC(=O)O1)[C@H](OC)/C=C/C=C(\C)C2 (single isomer, unassigned) [Compound 81] | – | IC50 [1, 5]: 0.9 nM; stability of atropisomers (HPLC chromatograms) [2]: no changes were observed
COc1cc2cc(c1-c1ccc(NC(=O)OC(C)(C)C)cc1)N(C)C(=O)C[C@H](OC(=O)C(C)C)[C@]1(C)O[C@H]1[C@H](C)[C@@H]1C[C@@](O)(NC(=O)O1)[C@H](OC)/C=C/C=C(\C)C2 [Compound 3, 4-(N-Bocamino)phenyl-AP3] | – | IC50 [1, 6]: 4 nM; IC50 [3]: 0.7 nM
COc1cc2cc(c1-c1ccc(N)cc1)N(C)C(=O)C[C@H](OC(=O)C(C)C)[C@]1(C)O[C@H]1[C@H](C)[C@@H]1C[C@@](O)(NC(=O)O1)[C@H](OC)/C=C/C=C(\C)C2 [Compound 4] | 1.2 | –
COc1cc2cc(c1-c1ccc(N)c(Cl)c1)N(C)C(=O)C[C@H](OC(=O)C(C)C)[C@]1(C)O[C@H]1[C@H](C)[C@@H]1C[C@@](O)(NC(=O)O1)[C@H](OC)/C=C/C=C(\C)C2 [Compound 5] | 1.2 | –
COc1cc2cc(c1-c1ccc(NC(=O)CCC(C)S)cc1)N(C)C(=O)C[C@H](OC(=O)C(C)C)[C@]1(C)O[C@H]1[C@H](C)[C@@H]1C[C@@](O)(NC(=O)O1)[C@H](OC)/C=C/C=C(\C)C2 (stereo partly drawn) [Compound 6] | 2.7 | –
COc1cc2cc(c1-c1ccc(NC(=O)CCC(C)(C)S)cc1)N(C)C(=O)C[C@H](OC(=O)C(C)C)[C@]1(C)O[C@H]1[C@H](C)[C@@H]1C[C@@](O)(NC(=O)O1)[C@H](OC)/C=C/C=C(\C)C2 [Compound 9] | 7.4 | –
COc1cc2cc(c1-c1ccc(NC(=O)CCCS)cc1)N(C)C(=O)C[C@H](OC(=O)C(C)C)[C@]1(C)O[C@H]1[C@H](C)[C@@H]1C[C@@](O)(NC(=O)O1)[C@H](OC)/C=C/C=C(\C)C2 [Compound 12] | 4.2 | –
COc1cc2cc(c1-c1ccc(NC(=O)CCS)cc1)N(C)C(=O)C[C@H](OC(=O)C(C)C)[C@]1(C)O[C@H]1[C@H](C)[C@@H]1C[C@@](O)(NC(=O)O1)[C@H](OC)/C=C/C=C(\C)C2 [Compound 15] | 5.4 | –
COc1cc2cc(c1-c1ccc(NC(=O)CCC(C)S)c(Cl)c1)N(C)C(=O)C[C@H](OC(=O)C(C)C)[C@]1(C)O[C@H]1[C@H](C)[C@@H]1C[C@@](O)(NC(=O)O1)[C@H](OC)/C=C/C=C(\C)C2 (stereo partly drawn) [Compound 18] | 0.9 | –
COc1cc2cc(c1-c1ccc(NC(=O)CCC(C)(C)S)c(Cl)c1)N(C)C(=O)C[C@H](OC(=O)C(C)C)[C@]1(C)O[C@H]1[C@H](C)[C@@H]1C[C@@](O)(NC(=O)O1)[C@H](OC)/C=C/C=C(\C)C2 [Compound 21] | 1.7 | –
COc1cc2cc(c1-c1ccc(NC(=O)CCS)c(Cl)c1)N(C)C(=O)C[C@H](OC(=O)C(C)C)[C@]1(C)O[C@H]1[C@H](C)[C@@H]1C[C@@](O)(NC(=O)O1)[C@H](OC)/C=C/C=C(\C)C2 [Compound 23] | 4.2 | –
COc1cc2cc(c1-c1ccc(NC(=O)CCC(C)SSC(C)CCC(=O)O)cc1)N(C)C(=O)C[C@H](OC(=O)C(C)C)[C@]1(C)O[C@H]1[C@H](C)[C@@H]1C[C@@](O)(NC(=O)O1)[C@H](OC)/C=C/C=C(\C)C2 (stereo partly drawn) [Compound 26] | – | degradation in mouse serum [4]: no comparable degradation products were observed; also recorded: no degradation products equivalent to A and B
COc1cc2cc(c1/C=C/CN)N(C)C(=O)C[C@H](OC(=O)C(C)C)[C@]1(C)O[C@H]1[C@H](C)[C@@H]1C[C@@](O)(NC(=O)O1)[C@H](OC)/C=C/C=C(\C)C2 [Compound 31, reference compound] | 33.4 | –
COc1cc2cc(c1-c1ccc(N)cc1)N(C)C(=O)C[C@H](OC(=O)[C@H](C)N(C)C(C)=O)[C@]1(C)O[C@H]1[C@H](C)[C@@H]1C[C@@](O)(NC(=O)O1)[C@H](OC)/C=C/C=C(\C)C2 [Compound 32] | 5.5 | –
COc1cc2cc(c1Cl)N(C)C(=O)C[C@H](OC(=O)[C@H](C)N(C)C(=O)CCC(C)SSC(C)CCC(=O)O)[C@]1(C)O[C@H]1[C@H](C)[C@@H]1C[C@@](O)(NC(=O)O1)[C@H](OC)/C=C/C=C(\C)C2 (stereo partly drawn) [Compound 78, reference compound] | – | degradation in mouse serum [4]: significant degradation
COc1cc2cc(c1Cl)N(C)C(=O)C[C@H](OC(=O)[C@H](C)N(C)C(=O)CCS)[C@]1(C)O[C@H]1[C@H](C)C1C[C@@](O)(NC(=O)O1)[C@H](OC)/C=C/C=C(\C)C2 [DM1, reference compound] | – | IC50 [1, 6]: 10 nM; IC50 [3]: 9 nM

Source: patent publication US10654873B2, “Cytotoxic agents and conjugates thereof” (priority 2016, dated 2020)
